According to patent US20230406840A1, “N-(2-(3-CYANO-2-AZABICYCLO[3.1.0]HEXAN-2-YL)-2-OXOETHYL)QUINOLINE-4-CARBOXAMIDES” (AstraZeneca AB, priority 2022, published 2023):
pIC50: −log10 of the molar value.

Assays:
[1] = target: human Fibroblast activation protein alpha (hFAP) (Homo sapiens (Human), UniProt Q12884); test: hFAP inhibition assay (tight binders); format: biochemical; conditions: tight-binder format, Ala-Pro-AMC 20 μM, 2.5 h incubation; n = 1 or geometric mean (n = 5-10)
Protocol: Data were analyzed in Genedata Screener®.

FAP Human Plasma = FAP Human Plasma (Homo sapiens (Human), UniProt Q12884); test: FAP plasma inhibition assay, human plasma; format: biochemical; conditions: human plasma dilution 1:40, Ala-Pro-AMC 75 μM; n = 1
FAP Human Plasma, sequence (Q12884 24-760 limits assumed): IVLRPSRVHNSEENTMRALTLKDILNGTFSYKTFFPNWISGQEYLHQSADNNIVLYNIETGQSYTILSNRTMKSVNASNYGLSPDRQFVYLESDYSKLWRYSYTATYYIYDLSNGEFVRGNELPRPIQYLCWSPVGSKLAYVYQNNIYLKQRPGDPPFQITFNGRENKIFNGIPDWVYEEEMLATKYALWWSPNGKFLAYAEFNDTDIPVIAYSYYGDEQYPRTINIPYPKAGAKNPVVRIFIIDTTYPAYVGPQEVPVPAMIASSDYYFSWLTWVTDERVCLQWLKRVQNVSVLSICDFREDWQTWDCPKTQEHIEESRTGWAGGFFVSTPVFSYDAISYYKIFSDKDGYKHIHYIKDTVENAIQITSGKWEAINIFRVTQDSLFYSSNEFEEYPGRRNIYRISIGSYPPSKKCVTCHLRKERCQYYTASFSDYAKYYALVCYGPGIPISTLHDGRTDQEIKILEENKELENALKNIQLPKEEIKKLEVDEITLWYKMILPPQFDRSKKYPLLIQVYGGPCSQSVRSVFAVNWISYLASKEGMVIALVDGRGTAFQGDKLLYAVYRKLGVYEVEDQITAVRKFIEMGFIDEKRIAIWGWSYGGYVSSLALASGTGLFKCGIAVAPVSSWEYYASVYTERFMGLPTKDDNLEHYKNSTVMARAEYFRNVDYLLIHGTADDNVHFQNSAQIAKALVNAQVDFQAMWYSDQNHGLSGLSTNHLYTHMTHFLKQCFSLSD
Protocol: (§1) This assay was adapted from the method described in Example 53 for detection of FAP target engagement enzyme activity in plasma. Plasma (anticoagulant K2EDTA) was used as the enzyme source: Human plasma (Pooled from AZ Biobank) and Mouse plasma (AZ AST Biobank). 384-Well black fluotrack PS plates (Greiner 781076) were used. 20 μL diluted plasma (Human plasma dilution 1:40, Mouse plasma dilution 1:67) in buffer (PBS, 0.1% BSA) was added to 0.6 μL compounds (in DMSO). Compounds were tested using 10 CR, 3-fold dilution series from 500 nM FAC. Two replicates for each assay point were run on the same plate. A fluorescence blank read was taken before substrate addition. Substrate, Ala-Pro-AMC (ARI-3144) stock solution (20 mM in DMSO) was diluted in buffer (PBS, 0.1% BSA) to 150 μM concentration and 20 μL added giving 75 μM FAC. Plates were incubated for 40 min at rt in the dark. The plates were read on a Beckman Paradigm® reader with excitation 360 nm and emission 465 nm. Data were analyzed in Excel (IDBS XLfit Add-In) using a one site dose response model (4-parameter logistic fit). […] Raw data signals were normalized using 1.5% DMSO in diluted plasma as 0% control and 1.5% DMSO in buffer (no plasma) as 100% inhibitor control.

FAP Mouse Plasma = FAP Mouse Plasma (Mus musculus (Mouse), UniProt P97321); test: FAP plasma inhibition assay, mouse plasma; format: biochemical; conditions: mouse plasma dilution 1:67, Ala-Pro-AMC 75 μM; n = 1
FAP Mouse Plasma, sequence (P97321 24-761 limits assumed): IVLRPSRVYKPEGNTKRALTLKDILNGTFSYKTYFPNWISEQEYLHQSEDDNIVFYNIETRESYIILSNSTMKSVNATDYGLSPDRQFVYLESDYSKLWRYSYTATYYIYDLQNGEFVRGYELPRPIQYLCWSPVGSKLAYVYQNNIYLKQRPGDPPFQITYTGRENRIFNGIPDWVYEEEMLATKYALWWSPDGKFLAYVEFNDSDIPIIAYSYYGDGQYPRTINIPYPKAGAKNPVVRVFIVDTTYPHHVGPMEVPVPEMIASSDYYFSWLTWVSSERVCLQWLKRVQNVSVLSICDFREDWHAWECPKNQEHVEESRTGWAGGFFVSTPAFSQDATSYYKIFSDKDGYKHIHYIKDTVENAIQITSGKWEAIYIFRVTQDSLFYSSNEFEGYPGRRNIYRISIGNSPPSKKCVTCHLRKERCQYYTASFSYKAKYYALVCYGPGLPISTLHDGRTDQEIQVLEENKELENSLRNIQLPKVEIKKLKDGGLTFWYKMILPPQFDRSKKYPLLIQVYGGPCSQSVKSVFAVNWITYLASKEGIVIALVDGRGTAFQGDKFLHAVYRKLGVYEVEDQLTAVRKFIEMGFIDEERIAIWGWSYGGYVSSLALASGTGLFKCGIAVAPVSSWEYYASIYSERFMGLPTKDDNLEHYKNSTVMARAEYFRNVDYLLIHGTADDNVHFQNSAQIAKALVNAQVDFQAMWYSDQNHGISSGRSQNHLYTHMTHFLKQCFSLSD
Protocol: as §1

[2] = target: Prolyl Oligopeptidase (hPREP) (Homo sapiens (Human), UniProt P48147); test: hPREP inhibition assay; format: biochemical; conditions: hPREP 0.6 nM, Z-Gly-Pro-amino-methylcoumarin 50 μM; read-out: PREP IC50
Prolyl Oligopeptidase (hPREP), sequence (P48147 whole entry): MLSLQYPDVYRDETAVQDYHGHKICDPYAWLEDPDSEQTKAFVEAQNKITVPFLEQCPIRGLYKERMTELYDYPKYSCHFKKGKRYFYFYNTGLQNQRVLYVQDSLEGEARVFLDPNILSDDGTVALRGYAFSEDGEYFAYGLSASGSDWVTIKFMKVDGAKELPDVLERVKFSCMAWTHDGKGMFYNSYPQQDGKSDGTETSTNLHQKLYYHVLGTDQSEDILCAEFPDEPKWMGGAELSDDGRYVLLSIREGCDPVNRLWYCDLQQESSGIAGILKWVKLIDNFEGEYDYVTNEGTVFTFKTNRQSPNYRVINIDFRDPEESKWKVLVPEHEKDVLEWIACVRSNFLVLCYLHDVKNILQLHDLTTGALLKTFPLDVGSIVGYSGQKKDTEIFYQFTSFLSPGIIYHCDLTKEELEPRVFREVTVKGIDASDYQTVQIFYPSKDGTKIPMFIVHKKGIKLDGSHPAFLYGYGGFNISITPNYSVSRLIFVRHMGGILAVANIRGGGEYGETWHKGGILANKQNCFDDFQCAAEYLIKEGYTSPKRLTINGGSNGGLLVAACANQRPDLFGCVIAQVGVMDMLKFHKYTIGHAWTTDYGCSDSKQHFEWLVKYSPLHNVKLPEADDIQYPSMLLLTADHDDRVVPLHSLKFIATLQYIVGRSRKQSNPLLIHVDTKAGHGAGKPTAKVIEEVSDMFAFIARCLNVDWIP
Method in brief: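 Recombinant human PREP at 0.6 nM final, with Z-Gly-Pro-AMC substrate at 50 μM final. Buffer: 25 mM Tris HCl pH 7.5, 250 mM NaCl, 0.01% Triton X-100, 5 mM glutathione. Incubated 20 min at rt in the dark; fluorogenic AMC release read.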

[3] = target: FAP enzyme activity in mouse plasma (Mus musculus (Mouse), UniProt P97321); test: FAP target engagement enzyme activity in mouse plasma after oral dosing; conditions: male C57Bl/6 mice, single oral dose 3 or 10 mg/kg; estimated from plasma exposure vs FAP activity, Imax fixed to 1; read-out: In vivo Mouse IC50
FAP enzyme activity in mouse plasma, sequence (P97321 24-761 limits assumed): as the sequence (P97321 24-761 limits assumed) above
Protocol: The effect of test compound on FAP enzyme activity in mouse plasma was evaluated in an enzymatic assay using the Fibroblast Activation Protein alpha (FAP) specific fluorogenic substrate dipeptide-Coumarin, Ala-Pro-AMC, (ARI-3144). In this assay, FAP cleaves Ala-Pro-AMC to release free AMC which is measured as a fluorescent signal that correlates with enzyme activity.
Male C57Bl/6 mice (Charles River, Germany), 8 weeks of age, were single housed in a temperature-controlled room with a 12-hour light/dark cycle (06:00-18:00 light). The mice had ad libitum access to water and rodent chow diet (R70, Lactamin, Kimstad, Sweden), and were acclimated for 5 days upon arrival. After acclimation, all mice received a single oral dose of test compound (3 or 10 mg/kg). Blood samples for whole blood compound exposure measurements were taken at 0.25, 0.5, 1, 2, 4, 8 and 24 h post oral dosing. Samples were collected in EDTA capillary tubes (20 μL, K2E, REF 19.447) and were transferred to a 96-deep well plate (NUNC, Thermo Discher Scientific) and stored at −20° C. until further analyses were performed. […]
Recombinant human FAP (PB-17-1837, construct PL-17-0278, cd33-FAP (27-757)-6His, Mw85926 Da) was used as a standard for this assay. […] The plates were read on a Beckman Paradigm reader with excitation 360 nm and emission 465 nm. Fluorescence measurements were performed with kinetic read every 5 minutes for 60 min at room temperature. Data were analyzed in Excel (IDBS XLfit Add-In) using a Linear Regression (y=k*x+m) model to prepare a human recombinant FAP standard curve.
On the day of the assay, plasma was diluted (1:2) to 20 μL volume in buffer (PBS, 0.1% BSA) and 7.5 μL was transferred to the assay plate (384-well black, fluotrack PS, Greiner 781076). […] The plates were read on a Beckman Paradigm reader with excitation 360 nm and emission 465 nm. Fluorescence measurements were performed with kinetic read every 5 minutes for 60 minutes at room temperature. As noted above, FAP cleaves Ala-Pro-AMC to release free AMC which is measured as a fluorescent signal. […]

hFAP = hFAP (Homo sapiens (Human), UniProt Q12884);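 also: fluorescence read after incubating enzyme with substrate at room temperature, IC50 fitted from percent inhibition against log concentration with a one-site model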
hFAP, sequence (Q12884 38-760): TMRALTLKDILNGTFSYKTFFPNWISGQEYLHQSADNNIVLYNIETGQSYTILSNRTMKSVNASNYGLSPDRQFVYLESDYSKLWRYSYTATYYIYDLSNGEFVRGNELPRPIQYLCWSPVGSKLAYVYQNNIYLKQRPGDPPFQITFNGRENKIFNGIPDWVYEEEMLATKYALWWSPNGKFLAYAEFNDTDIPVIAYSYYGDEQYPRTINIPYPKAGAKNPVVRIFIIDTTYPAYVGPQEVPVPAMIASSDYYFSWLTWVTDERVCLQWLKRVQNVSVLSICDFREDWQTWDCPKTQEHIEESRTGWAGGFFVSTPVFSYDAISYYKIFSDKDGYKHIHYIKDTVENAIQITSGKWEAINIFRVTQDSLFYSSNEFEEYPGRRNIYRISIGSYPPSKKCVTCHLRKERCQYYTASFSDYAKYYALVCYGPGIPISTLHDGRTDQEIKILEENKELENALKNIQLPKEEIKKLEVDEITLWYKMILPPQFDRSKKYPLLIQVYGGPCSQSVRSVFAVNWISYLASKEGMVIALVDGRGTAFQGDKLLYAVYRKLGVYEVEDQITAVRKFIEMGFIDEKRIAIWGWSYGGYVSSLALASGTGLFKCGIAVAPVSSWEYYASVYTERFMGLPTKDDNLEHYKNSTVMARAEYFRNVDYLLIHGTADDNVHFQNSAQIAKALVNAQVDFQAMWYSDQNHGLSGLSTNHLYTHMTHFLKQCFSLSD

[4] = target: human dipeptidylpeptidase 7 (hDPP7) (Homo sapiens (Human), UniProt Q9UHL4); test: hDPP7 inhibition assay; format: biochemical; conditions: highest compound concentration 10 μM; n = 1
Protocol: Compounds were tested in a biochemical inhibition assay using human dipeptidylpeptidase 7 (hDPP7) enzyme (BPS Bioscience, #80070) and the substrate Ala-Pro-amino-methylcoumarin (BPS Bioscience, #80305) at 10 μM FAC. The enzymatic reactions were conducted in duplicate at rt for 20 min in 50 μL assay buffer (10 mM Tris-HCl, pH 7.4, 10 mM MgCl2, 1 mM MnCl2). Compound solutions (in DMSO) at 10 CR, 3-fold dilution series were prepared in assay buffer ten-fold higher than the final concentration, and 5 μL of the dilution was added to a 50 μL reaction so that the highest compound concentration was 10 μM FAC and the concentration of DMSO was 1% in all wells. The plates were read on a PHERAstarPLUS (BMG) using kinetic mode with excitation 340 nm and emission 460 nm. Data were analyzed in Graph Pad Prism. Raw data signals were normalized using 1% DMSO as 0% control and no enzyme as 100% inhibitor control.

[5] = target: human dipeptidylpeptidase 8 (hDPP8) (Homo sapiens (Human), UniProt Q6V1X1); test: hDPP8 inhibition assay; format: biochemical; conditions: single concentration 10 μM; n = 1
human dipeptidylpeptidase 8 (hDPP8), sequence (Q6V1X1 whole entry): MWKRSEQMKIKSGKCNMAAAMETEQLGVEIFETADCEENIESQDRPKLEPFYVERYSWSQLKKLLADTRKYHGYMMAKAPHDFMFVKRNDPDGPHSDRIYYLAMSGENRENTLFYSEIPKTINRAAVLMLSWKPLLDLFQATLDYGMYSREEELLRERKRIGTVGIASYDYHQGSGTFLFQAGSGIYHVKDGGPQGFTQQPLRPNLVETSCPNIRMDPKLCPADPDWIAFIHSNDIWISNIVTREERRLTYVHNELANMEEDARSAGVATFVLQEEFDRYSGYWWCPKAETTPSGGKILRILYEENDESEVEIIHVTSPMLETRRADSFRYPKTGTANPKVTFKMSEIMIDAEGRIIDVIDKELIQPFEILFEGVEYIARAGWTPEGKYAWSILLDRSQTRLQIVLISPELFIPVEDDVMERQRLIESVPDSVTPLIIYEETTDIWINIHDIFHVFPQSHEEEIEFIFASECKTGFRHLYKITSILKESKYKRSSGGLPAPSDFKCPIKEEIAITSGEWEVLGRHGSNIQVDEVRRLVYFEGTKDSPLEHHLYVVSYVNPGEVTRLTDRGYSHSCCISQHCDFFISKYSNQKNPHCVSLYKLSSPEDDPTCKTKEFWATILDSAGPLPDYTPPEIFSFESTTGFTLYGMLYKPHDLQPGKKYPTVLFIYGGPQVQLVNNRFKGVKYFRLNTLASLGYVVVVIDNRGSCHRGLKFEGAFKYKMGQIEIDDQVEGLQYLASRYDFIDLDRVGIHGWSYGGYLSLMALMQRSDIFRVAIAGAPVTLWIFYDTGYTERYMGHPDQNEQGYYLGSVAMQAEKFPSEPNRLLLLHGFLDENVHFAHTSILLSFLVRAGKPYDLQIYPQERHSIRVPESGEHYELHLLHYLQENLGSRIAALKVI
Protocol: Compounds were tested in a biochemical inhibition assay using human dipeptidylpeptidase 8 (hDPP8) enzyme (BPS Bioscience, #80800) and the substrate Gly-Pro-amino-methylcoumarin (Enzo #BML-P189-0005) at 10 μM FAC. The enzymatic reactions were conducted in duplicate at rt for 20 min in 50 μL assay buffer (50 mM Tris, pH 7.5, 0.1% BSA). Compound solutions (in DMSO), were prepared in assay buffer ten-fold higher than the final concentration, and 5 μL of the dilution was added to a 50 μL reaction so that the compound concentration was 10 μM FAC and the concentration of DMSO was 1% in all wells. The plates were read on a PHERAstarPLUS (BMG) using kinetic mode with excitation 340 nm and emission 460 nm. Data were analyzed in Graph Pad Prism. Raw data signals were normalized using 1% DMSO as 0% control and no enzyme as 100% inhibitor control.

[6] = target: human dipeptidylpeptidase 9 (hDPP9) (Homo sapiens (Human), UniProt Q86TI2); test: hDPP9 inhibition assay; format: biochemical; conditions: highest compound concentration 10 μM; n = 1
human dipeptidylpeptidase 9 (hDPP9), sequence (Q86TI2 whole entry): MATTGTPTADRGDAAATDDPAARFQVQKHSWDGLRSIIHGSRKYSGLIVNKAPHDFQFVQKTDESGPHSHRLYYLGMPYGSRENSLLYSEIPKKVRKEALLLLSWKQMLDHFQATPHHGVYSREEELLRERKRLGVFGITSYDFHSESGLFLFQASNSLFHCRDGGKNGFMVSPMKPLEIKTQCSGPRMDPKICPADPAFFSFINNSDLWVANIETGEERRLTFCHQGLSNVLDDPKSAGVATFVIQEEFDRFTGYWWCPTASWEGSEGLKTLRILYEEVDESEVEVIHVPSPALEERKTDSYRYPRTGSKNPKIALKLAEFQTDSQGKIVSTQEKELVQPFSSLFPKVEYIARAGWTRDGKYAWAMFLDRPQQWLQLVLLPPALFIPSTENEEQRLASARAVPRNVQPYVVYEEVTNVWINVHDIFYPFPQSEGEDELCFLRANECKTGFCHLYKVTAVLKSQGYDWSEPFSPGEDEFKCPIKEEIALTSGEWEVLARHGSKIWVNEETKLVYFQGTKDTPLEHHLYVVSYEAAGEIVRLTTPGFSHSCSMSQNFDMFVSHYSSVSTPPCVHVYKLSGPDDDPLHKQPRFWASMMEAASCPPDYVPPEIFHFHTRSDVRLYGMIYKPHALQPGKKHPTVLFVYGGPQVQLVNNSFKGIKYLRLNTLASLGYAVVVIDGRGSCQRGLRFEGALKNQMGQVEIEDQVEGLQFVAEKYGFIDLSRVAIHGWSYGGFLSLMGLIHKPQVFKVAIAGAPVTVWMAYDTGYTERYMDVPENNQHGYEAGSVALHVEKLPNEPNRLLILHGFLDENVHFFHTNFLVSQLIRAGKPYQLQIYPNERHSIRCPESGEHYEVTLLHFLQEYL
Protocol: Compounds were tested in a biochemical inhibition assay using human dipeptidylpeptidase 9 (hDPP9) enzyme (R&D, #5419-SE-010) and the substrate Gly-Pro-amino-methylcoumarin (Enzo #BML-P189-0005) at 10 μM FAC. The enzymatic reactions were conducted in duplicate at rt for 30 min in 50 μL assay buffer (50 mM Tris, pH 7.5, 0.1% BSA). Compound solutions (in DMSO) at 10 CR, 3-fold dilution series were prepared in assay buffer ten-fold higher than the final concentration, and 5 μL of the dilution was added to a 50 μL reaction so that the highest compound concentration was 10 μM FAC and the concentration of DMSO was 1% in all wells. The plates were read on a PHERAstarPLUS (BMG) using kinetic mode with excitation 340 nm and emission 460 nm. Data were analyzed in Graph Pad Prism. […] Raw data signals were normalized using 1% DMSO as 0% control and no enzyme as 100% inhibitor control.

[7] = Metabolic stability in human liver microsomes (HLM); format: in vitro ADME
Protocol: Metabolic stability in HLM was measured as described in J Comput Aided Mol Des 2015, 29, 795.

Rat Hepatocytes (rHep) = test: Metabolic stability in rat hepatocytes (rHep); format: in vitro ADME
Protocol: Metabolic stability in rat hepatocytes was measured as described in J Comput Aided Mol Des 2015, 29, 795.

Human Hepatocytes (hHep) = test: Metabolic stability in human hepatocytes (hHep); format: in vitro ADME
Protocol: Metabolic stability in human hepatocytes was measured as described in Xenobiotica 2010, 40, 637.

Kinetic solubility = format: physicochemical; conditions: kinetic from dmso stock
Protocol: Kinetic solubility was measured as described in Comput Aided Mol Des 2015, 29, 795.

human Fibroblast activation protein alpha (hFAP), sequence (Q12884 38-760): as the sequence (Q12884 38-760) above

Compound | pIC50 [1] | pIC50 (FAP Human Plasma) | pIC50 (FAP Mouse Plasma) | pIC50 [2] | pIC50 [3] | pIC50 (hFAP) | pIC50 [4] | hDPP8 Activity at Compound Concentration 10 μM [5] | pIC50 [6] | microsomal CLint [7] [µL/min/mg] | rHeps CLint (Rat Hepatocytes (rHep)) [μL/min/1E6] | hHep CLint (Human Hepatocytes (hHep)) [μL/min/1E6] | solubility (Kinetic solubility) [µM]
N#C[C@@H]1C[C@@H]2C[C@@H]2N1C(=O)CNC(=O)c1ccnc2cc(Cl)ccc12 [Example 2, 7-Chloro-N-(2-((1S,3S,5S)-3-cyano-2-azabicyclo[3.1.0]hexan-2-yl)-2-oxoethyl)quinoline-4-carboxamide] | 9.74 | 7.89 | 8.15 | < 4.30 | 7.68 | 9.19 |  |  |  |  |  |  | 
N#C[C@@H]1C[C@@H]2C[C@@H]2N1C(=O)CNC(=O)c1ccnc2cc(C(F)(F)F)ccc12 [Example 23, N-(2-((1S,3S,5S)-3-Cyano-2-azabicyclo[3.1.0]hexan-2-yl)-2-oxoethyl)-7-(trifluoromethyl)quinoline-4-carboxamide] | 9.48 | 8.44 | 8.72 | 4.92 |  | 9.09 | < 8.00 | Not Active | < 8.00 | 9.9 | 7.7 | 1.6 | > 1000
